Series [1] concerns RG2. The series can be described thus: Induction of cell cycle arrest in rat RG2 cells assessed as p21 expression at 112.4 uM after 48 hrs by Western blot analysis (reference value: 1). It is filed as functional.
For series [2], the system named is DBTRG-05MG. The series can be described thus: Induction of DNA damage in human DBTRG-05MG cells assessed as ATM phosphorylation at ser1981 residues at 112.4 uM after 48 hrs in presence of TMZ by Western blot analysis (reference value: 1). The series is classed as functional.
Series [3] deals with DBTRG-05MG. The series can be described thus: Induction of cell cycle arrest in human DBTRG-05MG cells assessed as accumulation at G2/M phase at 112.4 uM after 6 hrs in presence of TMZ by propidium iodide staining based flow cytometric analysis (reference value: 30.08 +/- 0.1%). The series is classed as functional. A general note: In flow cytometry, cells or beads pass a laser one at a time.

Series [4] relates to DBTRG-05MG. In words: Induction of cell cycle arrest in human DBTRG-05MG cells assessed as CDK2 expression at 112.4uM after 48 hrs in presence of TMZ by Western blot analysis (reference value: 1). It is filed as functional.
In series [5] the test system is RG2. In words: Induction of apoptosis in rat RG2 cells assessed as increase in apoptotic body formation at 112.4 uM after 48 hrs in presence of TMZ by TUNEL assay. The series is classed as functional, cell-based.
A short description of series [6]: Effect on AKT expression in rat RG2 cells at 112.4uM after 48 hrs by Western blot analysis (reference value: 1). It is filed as functional. (In western blotting, separated proteins are transferred to a membrane and probed.)
The test system of series [7] is DBTRG-05MG. In words: Synergistic cytotoxicity against human DBTRG-05MG cells assessed as synergistic effect index at 89.9 uM after 48 hrs in presence of 206 uM TMZ by MTT assay. The series is classed as functional. (Tetrazolium dyes change colour on reduction, which living cells bring about.)
Series [8] relates to DBTRG-05MG. The series can be described thus: Synergistic cytotoxicity against human DBTRG-05MG cells assessed as combination index at 112.4 uM after 48 hrs in presence of 412.1 uM TMZ by MTT assay. The series is classed as functional.
A short description of series [9]: Synergistic cytotoxicity against rat CTX TNA2 cells assessed as combination index at 134.9 uM after 48 hrs in presence of 309 uM TMZ by MTT assay. It is filed as cell-based. Conditions: ctx tna2, 48 h.
Series [10] relates to DBTRG-05MG. In words: Induction of cell cycle arrest in human DBTRG-05MG cells assessed as p21 expression at 112.4 uM after 48 hrs by Western blot analysis (reference value: 1). It is filed as functional.
In series [11] the test system is DBTRG-05MG. In words: Induction of DNA damage in human DBTRG-05MG cells assessed as H2A.X phosphorylation at ser139 residues at 206 uM after 48 hrs by Western blot analysis (reference value: 1). The series is classed as functional.
Series [12] relates to DBTRG-05MG. In words: Induction of cell cycle arrest in human DBTRG-05MG cells assessed as accumulation at G0/G1 phase at 206 uM after 12 hrs by propidium iodide staining based flow cytometric analysis (reference value: 47.16 +/- 1.55%). The series is classed as functional.
Series [13] deals with RG2. The series can be described thus: Induction of apoptosis in rat RG2 cells assessed as phosphorylated PARP expression at 206 uM after 48 hrs by Western blot analysis (reference value: 1). It is filed as functional.
Series [14] concerns DBTRG-05MG. The series can be described thus: Induction of apoptosis in human DBTRG-05MG cells assessed as phosphorylated caspace-9 expression at 206 uM after 48 hrs by Western blot analysis (reference value: 1). It is filed as functional.
For series [15], the system named is DBTRG-05MG. The series can be described thus: Induction of cell cycle arrest in human DBTRG-05MG cells assessed as accumulation at G2/M phase at 206 uM after 12 hrs by propidium iodide staining based flow cytometric analysis (reference value: 30.08 +/- 0.1%). It is filed as functional.

Activity calls are given as the source filed them. No cut-off for these calls is given here.

Consider two molecules from ChEMBL document CHEMBL4699511, “Cedrol, a Sesquiterpene Alcohol, Enhances the Anticancer Efficacy of Temozolomide in Attenuating Drug Resistance via Regulation of the DNA Damage Response and MGMT Expression” (J Nat Prod, 2020).

As for `C[C@@H]1CC[C@H]2C(C)(C)[C@H]3C[C@@]12CC[C@@]3(C)O` [CEDROL], the “fold change (FC)” value with RG2 [1] turned out to be 1.6; in the series on DBTRG-05MG [2] it was 2.9; with DBTRG-05MG [4], 0.7; in series [6] it was 0.6; in the series on DBTRG-05MG [10], 1.1. The Activity in the series on DBTRG-05MG [3] was determined as 32.51%. Moreover, the outcome in the series with RG2 [5] was Active. Moreover, the Activity_index in the series on DBTRG-05MG [7] is on record as 0.72. The CI in the series on DBTRG-05MG [8] was determined as 0.62; in series [9] it was 1.13.
Take `Cn1nnc2c(C(N)=O)ncn2c1=O` [TEMOZOLOMIDE]: the results for the “fold change (FC)” value with DBTRG-05MG [11], in the series on RG2 [13] and with DBTRG-05MG [14] were 1, 0.4 and 0.3, respectively. For the same molecule, the Activity with DBTRG-05MG [12] is listed as 42.28%; in the series with DBTRG-05MG [15], 35.43%.
